Patent publication US7771426B2, “Bone treatment instrument and method” (University Health Network, priority 2004, dated 2010)
“Also recorded” adds a separate entry of the source.

Tests used:
MT-1 cells = assay: PDT effect on in vitro MT-1 cells (SRB assay); format: cell-based, human
Description: Method: MT-1 cells were grown and maintained in RPMI media containing penicillin and streptomycin with 10% fetal bovine serum at 37 degrees Celsius. Once the cells had reached subconfluence they were resuspended in free RPMI. The cells were harvested using 0.05% trypsin—0.05 mM EDTA solution. Cells were then counted with a hemocytometer and plated at 2×10^5 cells/ml in a 96 well plate. BPD-MA was then added to the individual wells at a concentration of 1 ug/ml or 10 ug/ml. […] Following treatment the cells were allowed to survive for 24 hours following which an SRB assay was performed to establish the number of viable cells remaining. Briefly, cells were fixed in 10% trichloroacetic acid and stained with a […] solution selectively staining viable cells. A spectrophotometer was then used to assess the absorbance of 540 nm light within individual wells of the 96 well plate which was correlated to the number of remaining cells following treatment.

[1] = BPD uptake in the serum and spinal cord (fluorimetry, fluorescent microscopy); format: in vivo, rats (Sprague-Dawley)
Description: Method: BPD-MA was administered to 10 rats (Sprague-Dawley, 150 gm) through a tail vein injection. Animals were then sacrificed using CO2 inhalation overdose at 16 minutes, 3 hrs, 6 hrs and 24 hrs following injection. Control animals without BPD-MA were euthanized in a similar fashion. Serum samples and spinal cord tissue samples were harvested from the animals at the time of euthanasia. A segment of spine was also fixed in 10% formalin for 7 days followed by decalcification for 7 days in 10% formic acid for fluoroscopic microscopic analysis. A control assay determined that BPD-MA fluorescence was not affected by formic acid. BPD-MA concentration within the serum and spinal cord tissue was then determined using fluorimetry. Briefly, the samples were solubilized and the samples were tested with excitation and emission spectra specific to BPD-MA. The fluorescence of the drug within the tissue was correlated to the specific uptake of the drug within the tissue. Fluorescent microscopy was also used to visualize the presence or absence of BPD-MA within the vertebrae and spinal cord at 1 hour, 3 hours and 24 hours.

[2] = test system: MT-1 cells, a human breast cancer cell line; assay: Effect of PDT in vertebrae and long bones with metastases (area of effect, histology); format: in vivo, mu/mu nude rats
From the text: (§1) Method: Thirty mu/mu nude rats were used in this part of the study. The rats received a left ventricular intracardiac injection with MT-1 cells as described earlier. At day 21 post injection each animal was anesthetized with 2% halothane/air mixture and placed on a custom made radiolucent stereotactic jig in the left lateral decubitus position. Prior to this it was established by histological methods that animals with tumors contained tumor in most vertebral bodies and long bones. Because lesions within the vertebral bodies could not be detected by fine detail radiography, T12 and L4 vertebrae were selected as representative levels for treatment. An 18 g needle was placed on the cortex of the targeted vertebrae or long bone with the use of a mini C-arm image intensifier. A 300 mW diode laser coupled to a 200 um fiber was used to deliver 690 nm light. BPD-MA was administered intravenously at a dose of 2 mg/kg prior to the administration of the light dose. […] Light doses ranged from 25 J to 150 J. Light was delivered at 150 mW for all treatments and the effects of different drug light intervals and different light doses using a fixed drug concentration were evaluated. The animals were examined for paralysis post treatment. The animals were sacrificed using CO2 inhalation. Vertebrae were then harvested and fixed in 10% formalin for 7 days. Micro-CT images were obtained and then the samples were decalcified in 10% formic acid for 7 days. The tissue was then blocked and paraffin embedded and 10 um sections were cut. The sections were analyzed under light microscopy using H&E staining as well as TUNEL and human EGF-r immunohistochemistry. The area of effect as denoted by necrosis and apoptosis was identified and measured using a Nikon slide scanner and Image Pro software.

[3] = test system: MT-1luc+ metastatic lesions; assay: Targeted bioluminescent lesions, pre and post-PDT bioluminescent imaging; format: in vivo, nude mu/mu rats
Description: Method: Twenty nude mu/mu (Harlan) female rats (4-6 weeks of age) were used in this part of the study. The protocol was in accordance with the Canadian Council on Animal Care prior to initiation. Prior to injection each animal was anesthetized with 2% halothane/air mixture in a sterile environment. Twenty animals were used for injection. The chest was prepared with alcohol and 2×10^6 MT-1luc+ cells, a human breast cancer cell line carrying the luciferase reporter gene, were injected into the left ventricle using a 1 ml syringe with a 26 g needle. Pulsatile blood in the syringe was ensured prior to each injection. The animals were placed back into their cages and fed water and rat chow ad libitum. At day 18 the animals were imaged using the Xenogen IVIS system. To do this 100 mg/kg luciferin was injected into the peritoneal cavity of each animal and each animal was imaged 5 minutes following injection for a 1 to 5 minute image acquisition period. The animals were then imaged on the same custom made stereotactic radiolucent jig using a mini-C-arm image intensifier which allowed correlation of the bioluminescent signal to the vertebrae. FIGS. 1A-C show stereotactic targeting of bioluminescent metastatic lesions using a mini-C-arm image intensifier. FIG. 1A is a bioluminescent overlay image of a nude rat with metastatic lesions on a radio lucent stereotactic jig. FIG. 1B is a fluoroscan image of markers placed along the grid of the stereotactic jig in correlation to the bioluminescent metastases and resulting in localization of the lesion.
The lesions were then targeted and treated with 25 J or 150 J at a 3 hour drug light interval. The animals were then re-imaged with the Xenogen IVIS system 48 hours post treatment in the stereotactic frame. Signal intensity (photons/second/cm^2) at the targeted site before treatment was compared to signal intensity following treatment and compared to lesions not treated using Igor Pro software (Alameda, Calif.). The animals were then sacrificed using CO2 inhalation and the spines and long bones were harvested. Samples were placed in 10% formalin for 7 days and micro-CT images of the vertebrae and long bones were obtained. The vertebrae were examined histologically using H&E staining and immunohistologically with human EGF-r and TUNEL stains as described earlier. ANOVA Bonferroni and two-tailed paired T-test statistical techniques were applied.

[4] = Effect of light dose on the rat spinal cord, spinal nerves and peripheral nerves (hind leg paralysis); format: in vivo, mu/mu nude rats
From the text: as §1

[5] = Treatment groups: deaths of rats; format: in vivo, mu/mu nude rats
[6] = pig, in vivo
Description: In this study, 50 kg pigs were used. The pigs were pre-anesthetized with ketamine/xylazine 20/2 mg/Kg IM for induction. An IV line was established and 0.9% saline solution was run at 5 ml/Kg/hr. Verteporfin was administered through the IV line using an infusion pump. The pigs were intubated and maintained on a ventilator with isofluorane/nitrous oxide inhalant by animal care professionals. The pigs were placed prone on a radiolucent surgical table with appropriate bolsters for support and padding. A sterile prep was made with betadine soap and scrub and prep solution. A small stab incision was made over the lumbothoracic spine of the pig.
Placement into the vertebral body through a transpedicular and parapedicular approach was facilitated by the use of a CT-Carm. The L1 and L2 vertebrae were targeted.
A cannulated exchange sheath was placed over the guide rod and inserted through the incision. The guide rod was then removed, and a fiber optic cable sheath was then inserted down the cannula of the exchange sheath. […] The cannulated bone screw assembly was pushed down the cannulated exchange sheath. […]
Detector and diffusing fibers were placed in the same transverse plane. The diffusing fiber was moved incrementally with respect to the detector fiber and differences in power were measured at five different distances from the detector source using a computer aided photomultiplier tube. […]

[7] = test system: orthotopic chondrosarcoma and fibrosarcoma tumor models; conditions: 4 weeks post treatment; 15 minute and 3 hour drug light interval; cited from earlier work
[8] = 25 J, drug-light interval 3 hrs
[9] = 50 J, drug-light interval 3 hrs
[10] = 75 J, drug-light interval 0.75 hrs
[11] = 75 J, drug-light interval 3 hrs
[12] = 100 J, drug-light interval 3 hrs
[13] = 150 J, drug-light interval 3 hrs

benzoporphyrin derivative monoacid ring A [BPD-MA]
Mean (absorbance), SRB assay (MT-1 cells; Group 1: drug 1 ug/ml, light 200 J/cm^2, 690 nm, 8 hour incubation): .2923 | Mean (absorbance), SRB assay (MT-1 cells; Group 2: drug 1 ug/ml, light 25 J/cm^2): .1946 | Mean (absorbance), SRB assay (MT-1 cells; Group 3: drug 10 ug/ml, light 200 J/cm^2): .2558 | Mean (absorbance), SRB assay (MT-1 cells; Group 4: drug 10 ug/ml, light 25 J/cm^2): .2049 | Mean (absorbance), SRB assay (MT-1 cells; Group 7: drug 1 ug/ml, no light): 1.2392 | difference in absorbance versus untreated wells (MT-1 cells; drug only): No significant difference | difference in absorbance versus untreated wells (MT-1 cells; wells treated with light and drug): significant difference | BPD-MA fluorescence in bone marrow ([1]; 1 hour): contained signal | BPD-MA fluorescence in spinal cord ([1]; 1 hour): no drug being present | BPD-MA fluorescence in bone marrow ([1]; 3 hours): intense signal | BPD-MA fluorescence in spinal cord ([1]; 3 hours): intense signal | fluorescence of the drug within the spinal cord and vertebrae ([1]; 24 hours): returned to baseline levels | serum drug concentration ([1]; after 3 hours): began to decline | serum drug concentration ([1]; by 24 hours post injection): returned to baseline | uptake of BPD-MA in spinal cord ([1]; drug uptake studies (fluorimetry)): minimal uptake | delay of uptake into the spinal cord ([1]; fluorescence microscopy): greater than 1 hour | serum drug concentration ([1]; over 15 minutes post tail vein injection): rapid increase | Antero-Posterior dimension of effect [2, 8]: 2.62 mm | Rostral-Caudal dimension of effect [2, 8]: 4.59 mm | Area of effect ([2]; 25 J, drug-light interval 3 hrs, 2 mg/kg i.v.): 8.435 mm^2 | Antero-Posterior dimension of effect [2, 9]: 3.89 mm | Area of effect [2, 9]: 15.04 mm^2 | Rostral-Caudal dimension of effect [2, 9]: 5.66 mm | Antero-Posterior dimension of effect [2, 10]: 5.05 mm | Area of effect [2, 10]: 82.47 mm^2 | Rostral-Caudal dimension of effect [2, 10]: 17.47 mm | Antero-Posterior dimension of effect [2, 11]: 5.09 mm | Area of effect [2, 11]: 52.38 mm^2 | Rostral-Caudal dimension of effect [2, 11]: 11.67 mm | Antero-Posterior dimension of effect [2, 12]: 5.05 mm | Area of effect [2, 12]: 45.49 mm^2 | Rostral-Caudal dimension of effect [2, 12]: 13.8 mm | Antero-Posterior dimension of effect [2, 13]: 5.78 mm | Area of effect [2, 13]: 80.53 mm^2 | Rostral-Caudal dimension of effect [2, 13]: 13.05 mm | diameter of largest area of effect ([2]; 200 um fiber optical cable, treatment time 16 minutes): 2.2 cm | ablation of tumor tissue ([2]; 24 hour drug light interval): No effect; also recorded: no difference | effect on tumor, bone, bone marrow or spinal cord ([2]; drug only, no light): did not affect | decrease in tumor growth compared to control lesions ([3]; 25 J, 3 hour drug light interval): 66% | PostRx/PreRx, Rx Area [3, 8]: 1.25 | reduction of bioluminescent signal from the targeted site ([3]; 150 J, 3 hour drug light interval, 48 hours following treatment): 87% | decrease in tumor growth compared to control lesions ([3]; 150 J, 3 hour drug light interval, one treatment): 99.8% | PostRx/PreRx, Rx Area ([3]; 150 J, drug light interval 3 hrs): 0.139 | Mean Count Rx Area ([3]; Post-PDT (48 hours), 25 J, drug-light interval 3 hrs): 2.33 × 10^4 | Mean Count Rx Area ([3]; Post-PDT (48 hours), 150 J, drug light interval 3 hrs): 1.42 × 10^3 | Mean Count Rx Area ([3]; Pre-PDT, 25 J, drug-light interval 3 hrs (n = 2)): 1.86 × 10^4 | Mean Count Rx Area ([3]; Pre-PDT, 150 J, drug light interval 3 hrs (n = 5)): 1.02 × 10^4 | Hind Leg Paralysis (animals) ([4]; 25 J, T12, drug light interval 3 hr, N = 5): 0 | Hind Leg Paralysis (animals) ([4]; 50 J, T12, drug light interval 3 hr, N = 5): 2 unilateral | Hind Leg Paralysis (animals) ([4]; 75 J, T12, drug light interval 3 hr, N = 4): 1 bilateral | Hind Leg Paralysis (animals) ([4]; 100 J, T12, drug light interval 3 hr, N = 3): 2 unilateral | Hind Leg Paralysis (animals) ([4]; 125 J, T12, drug light interval 3 hr, N = 2): 1 bilateral | Hind Leg Paralysis (animals) ([4]; 150 J, T12, drug light interval 0.25 hr, N = 4): 4 | Hind Leg Paralysis (animals) ([4]; 150 J, T12, drug light interval 3 hr, N = 4): 3 bilateral | Death During PDT (animals) ([5]; MT-1 group, n = 20): 0 | Death Following Verteporfin Injection (animals) ([5]; MT-1 group, n = 20): 1 | Death During PDT (animals) ([5]; MT-1luc+ group, n = 30): 1 | Death Following Verteporfin Injection (animals) ([5]; MT-1luc+ group, n = 30): 2 | complications attributed to the PDT [6]: no hindleg paralysis | lesions completely ablated [7]: 33%
